Like-named read-outs stand apart in the source and are kept apart here.
Tests used:
[1] = tested on: CD11b+ cells adhesion to endothelium; assay: Adhesion of CD11b+ cells to endothelium (Example 1 adhesion assay); assay type: cell-based, murine; conditions: SDF-1α, TCM or IL-1β (and other chemoattractant) induced
Experimental: TCM was prepared from serum-free media cultured on LLC cells for 18 h and filtered through 0.22 μm filters. 10^5 calcein-AM labelled human or murine CD11b+ cells in TCM or DMEM containing 200 ng/ml SDF-1α, IL-1β, IL-6, IL-8 or VEGF-A (R&D Systems) were incubated on HUVEC monolayers or on plastic plates coated with 5 μg/ml recombinant soluble VCAM-1 (R&D Systems). Adherent cells were quantified using a fluorescence activated plate reader (GeniosPro, TECAN). In some assays, cells were also incubated in 25 μg/ml anti-integrin α4β1 (PS2 for murine cells and HP2/1 for human cells, gifts from Biogen-Idec) and isotype control antibodies (IgG2bk for murine cells and IgG1 for human cells). In some studies, cells were incubated in 10 μM pan PI3K inhibitors […] or TG020, in PI3kinase α inhibitor PI3K75, PI3kinase γ/δ inhibitor TG115 and an inert control.

PyMT breast tumours = assay: Spontaneous PyMT breast tumour progression in treated mice; assay type: in vivo, FVB PyMT+ female mice
Experimental: Alternatively, 6 week old PyMT+ female mice (with spontaneous breast tumours), were treated by subcutaneous injection with ELN476063 (3 mg/kg body weight), or saline every third day for three weeks (n=10). Tumours were excised, weighed and analyzed from 6 weeks at 9 weeks of age.
PI3-kinase γ inhibitor studies: C57BL/6 mice were subcutaneously implanted on d1 with 5×10^5 LLC or by intradermal injection with 5×10^5 B16 melanoma cells. Mice were treated by i.p. injection with 2.5 mg/kg of PI3-kinase γ inhibitor (TG100-115) or with a chemically similar inert control (n=10) twice daily for fourteen days for a total daily dose of 5 mg/kg. In additional studies, C57BL/6 mice were subcutaneously implanted on d1 with 5×10^5 LLC and were treated by i.p. injection with 2.5 mg/kg, 0.25 mg/kg, or 0.025 mg/kg of PI3-kinase γ inhibitor (TG100-115), with 2.5 mg/kg of AS605240 or with a chemically similar inert control (n=10) twice daily for twenty-one days for a total daily dose of 5 mg/kg. Tumour volumes, weights and blood vessel densities, as well as myeloid cell densities were measured. Alternatively, 6 week old PyMT+ female mice (with spontaneous breast tumours), were treated by i.p. injection with 2.5 mg/kg PI3-kinase γ inhibitor (TG100-115) or inert control twice daily for three weeks (n=10). Tumours were excised, weighed and analyzed after 3 weeks. Alternatively, 6 week old FVB PyMT+ female mice were implanted with an Alzet osmotic pump with a 0.25 μl/h release rate containing 4.6 mg in 200 μl of TG100-115 or chemically similar, inert control (n=10). Mice were sacrificed at 9 weeks of age and tumours were analyzed.
Inguinal mammary glands were fixed in Carnoy's fixative, dehydrated through a graded series of ethanol solutions and defatted in xylene. Following rehydration, the mammary epithelium was stained with carmine stain (Sigma Chemical, St Louis, Mo.) for 30 min. After removing excess stain by washing in water, samples were dehydrated and stored in methyl salicylate (Sigma Chemical, St Louis, Mo.).^31

[2] = Pharmacokinetic analysis of TG100-115 in serum; assay type: in vivo, Balb/c mice; conditions: mouse
Experimental: (§1) Pharmacokinetic analysis of a 5 mg/kg bolus dose TG100-115 in Balb-c mice was accomplish by evaluating TG100-115 levels in serum at 5, 15, 30, 60 minute intervals as was previously performed for rats^25. In vivo activity assay of a 5 mg/kg bolus dose TG100-115 in Balb-c mice was accomplish by evaluating pAkt/Akt levels in peripheral blood cells in response to SDF-1α stimulation at 0.25, 0.5, 1, 2, 4, 6 and 12 hour intervals

[3] = tested on: CD11b+ myeloid cell adhesion to VCAM-1; assay: Chemoattractant-stimulated CD11b+ myeloid cell adhesion to VCAM-1 / endothelial cells (Example 9 adhesion assay); assay type: cell-based, mouse; conditions: Mus musculus, Endothelial cell, read-out: IC50, CD11b+ cell adhesion to VCAM-1
Experimental: 1×10^5 calcein-AM labelled human CD11b+ cells isolated from buffy coats from the San Diego Blood Bank or murine CD11b+ cells isolated from naïve (non-tumour bearing) or tumour-bearing mice were incubated on HUVEC monolayers or on plastic plates coated with 5 μg/ml recombinant soluble VCAM-1 or ICAM-1 (R&D Systems) for 30 minutes at 37° C. with humidity in the presence of LLC Tumour Conditioned Medium (TCM) or DMEM containing 200 ng/ml SDF1α, IL1β, IL6, TNFα or VEGF-A (R&D Systems). (SDF-1α and IL-1β were initially titrated to determine the minimum dose required to achieve near maximal stimulation of adhesion). TCM was prepared by incubating LLC cells in serum-free media for 18 h and filtering through 0.22 μm filters. After washing three times with warmed medium, adherent cells were quantified using a plate fluorimeter (GeniosPro, TECAN).
In some adhesion assays, cells were also incubated in 25 μg/ml function-blocking anti-integrin α4β1 (rat anti-murine, PS2 or mouse anti-human, HP2/1, gifts from Biogen-Idec), rat-anti-αM (anti-CD11b, M1/70) and isotype control antibodies (rat IgG2κ or mouse IgG1) or with 0.1 nM-10 μM doses of the small molecule inhibitor of integrin α4, ELN476063 (IC50=10 nM), a gift from Elan^14.
Additionally, labelled cells were incubated with HUVEC and rsVCAM coated plates in the presence of […] or SDF-1α and 1-10 μM inhibitors: pan-PI3 kinase inhibitors ([…], wortmannin), PI3-kinase α inhibitors (PI3K75, PIK2alpha, PI103), PI3-kinase β inhibitor (TGX221), PI3-kinase γ inhibitors (TG100-115, AS605240, AS604850), inert control, PLC inhibitor (U73122), geranylgeranyltransferase (Rap1-selective) inhibitors (GGTI-2147 and GGTI-298) or farnesyltransferase (Ras-selective) inhibitor (FTI-277), Akt inhibitors (Inhibitor X and peptide 18), mTOR inhibitor (rapamycin), ROCK inhibitor (Y27632), MEK inhibitor (PD98059), p38 inhibitor (SB202190), tyrosine kinase inhibitor (genestein) and PKA inhibitors (H89, KT5720). LY294002, wortmannin, genestein, U73122, GGTI-2147, GGTI-298, FTI-277, Y27632, PD98059, SB202190, H89 and KT5720 were from Calbiochem. PIK2alpha, PI103, AS605240, AS604850 and TGX221 were from Echelon. TG100-115 was prepared as described^25-26. To titrate the effect of various signalling protein inhibitors on myeloid cell adhesion stimulated by IL-1β or SDF-1α, cells were incubated in 1 nm to 100 μM PI3-kinase inhibitors TG00020 (a pan-PI3-kinase inhibitor), PI3-kinase α inhibitor (PI3Kalpha2) PI3-kinase β inhibitor (TGX221), PI3-kinase γ inhibitors (TG100-115, AS605240), an inert chemically matched control, farnesyltrasnferase inhibitors and geranylgeranyltransferase inhibitors. IC50s for GGTI and FTI were 1 μM. […] Adherent GFP+ cells were automatically quantified using MetaMorph software (Molecular Devices Software).

PI3kinase = assay: In vivo PI3kinase activity assay (pAkt/Akt in peripheral blood mononuclear cells after i.v. dosing); set-up: species or system mice
Experimental: as §1
CD11b+ cells from C57BL/6 mice or PI3-kinase γ−/− mice were freshly isolated under serum free-conditions and were incubated for 30 min in serum-free media in the presence or absence of 1 μM TG100-115. CD11b+ cells were then stimulated with 200 ng/ml IL-1β or SDF-1α (R&D Systems) for 1-3 minutes and cells were solubilized with RIPA buffer. Alternatively, mice were injected intravenously with […] TG100-115 or a chemically similar inert control. Mononuclear peripheral blood leukocytes were isolated from 2 mice each at 0.5, 1, 2, 4, 6 and 12 hours after treatment. Cells were treated for 3 minutes with 200 ng/ml SDF and then solubilized with RIPA buffer. Lysates were electrophoresed and Western blotted. Akt phosphorylation was evaluated by immunoblotting with anti-phosphorylated Thr308-Akt specific antibody (C31 E5E, Cell Signalling). Blots were stripped and reprobed with anti-Akt (#9272, Cell Signaling). Films were scanned and quantified by densitometry.

Structure (SMILES)	CD11b+ cell adhesion to endothelium [1]	carcinoma area in mammary gland whole mounts (PyMT breast tumours)	hyperplasia area in mammary gland whole mounts (PyMT breast tumours)	normal tissue area in mammary gland whole mounts (PyMT breast tumours)	half-life ([2]; Balb/c, intravenous, 5 mg/kg, read-out: t1/2 in vivo (converted)) [min]	concentration at 1 h ([2]; iv, single i.v. dose of 5 mg/kg, Balb/c mice) [ng/mL]	half-life ([2]; iv, single i.v. dose of 5 mg/kg, Balb/c mice, read-out: half-life in mice in vivo (converted)) [min]	IC50 ([3]; IL-1β stimulated) [nM]	IC50 ([3]; SDF-1α stimulated) [nM]	time after dosing for which PI3kinase activity is inhibited (PI3kinase; 5 mg/kg i.v., PBMC stimulated 3 min with SDF-1α)	myeloid cell PI3kinase catalytic activity in vivo (PI3kinase; mouse, in vivo)
c1cc(CN2CCCNCCNCCCNCC2)ccc1CN1CCCNCCNCCCNCC1 [AMD3100]	inhibited SDF-1α, and TCM-induced but not IL-1β induced adhesion	–	–	–	–	–	–	–	–	–	–
Nc1nc(N)c2nc(-c3cccc(O)c3)c(-c3cccc(O)c3)nc2n1 [TG100-115, 3,3′-(2,4-diaminopteridine-6,7-diyl)diphenol]	–	6+/−1.3%	27+/−5%	67+/−3%	13.2	7.1	13.2	281	158	up to 12 hours	rapidly and sustainably inhibits myeloid cell PI3kinase catalytic activity in vivo

— patent publication US20100278837A1, “Compositions And Methods For Reducing Cancer And Inflammation” (The Regents of the University of California, priority 2009, published 2010)
